Measured values as given in the NIST ThermoML archive (doi:10.1016/j.fluid.2013.07.061).
Numbers after ± are expanded uncertainties.

Key:
[1] = DTA; for Normal melting temperature: Crystal 1
[2] = Molar enthalpy of transition or fusion; conditions: DSC

Row | Normal melting temperature [1] | Triple point temperature ([1]; Crystal 2) | Triple point temperature ([1]; Crystal 3) | Molar enthalpy of transition or fusion ([2]; Crystal 1) | Molar enthalpy of transition or fusion ([2]; Crystal 2) | Molar enthalpy of transition or fusion ([2]; Crystal 3) | SMILES
1 | 95.1 ± 0.4 °C | 350.96 ± 0.39 K | 310.6 ± 0.73 K | 1.23 ± 0.0454 kcal/mol | 0.664 ± 0.0335 kcal/mol | 1.89 ± 0.1 kcal/mol | CCC[N+]1(C)CCCCC1.F[P-](F)(F)(F)(F)F [1-methyl-1-propylpiperidinium hexafluorophosphate]
2 | 110.5 ± 1.4 °C | 360.88 ± 1.7 K | 348.58 ± 1.3 K | 0.875 ± 0.0765 kcal/mol | 0.55 ± 0.0478 kcal/mol | 0.66 ± 0.0502 kcal/mol | CCC[N+]1(C)CCCC1.F[P-](F)(F)(F)(F)F [1-methyl-1-propylpyrrolidinium hexafluorophosphate]
3 | 251.1 ± 0.9 °C | 360.7 ± 0.7 K | 303.95 ± 0.39 K | 3.92 ± 0.153 kcal/mol | 0.492 ± 0.55 kcal/mol | 0.502 ± 0.0526 kcal/mol | CCCC[N+](CCCC)(CCCC)CCCC.F[P-](F)(F)(F)(F)F [tetrabutylammonium hexafluorophosphate]
4 | 225.5 ± 0.4 °C | – | 265.37 ± 0.39 K | 3.51 ± 0.0884 kcal/mol | – | 0.433 ± 0.0335 kcal/mol | CCCC[P+](CCCC)(CCCC)CCCC.F[P-](F)(F)(F)(F)F [tetrabutylphosphonium hexafluorophosphate]
